In patent US20100286181A1, “PYRROLE DERIVATIVES WITH ANTIBACTERIAL ACTIVITY” (ASTRAZENECA AB, priority 2006, published 2010):

Each molecule was assayed against GyrB ATPase activity (E. coli GyrA, E. coli GyrB) (Escherichia coli, UniProt P0AES6) (assay: GyrB ATPase inhibition activity assay (ammonium molybdate/malachite green phosphate detection)). Conditions: figure quoted may be an average of two or more results.
Type: biochemical
Protocol: Compounds may be tested for inhibition of GyrB ATPase activity using an ammonium molybdate/malachite green-based phosphate detection assay (Lanzetta, P. A., L. J. Alvarez, P. S. Reinach, and O. A. Candia, 1979, 100: 95-97). Assays can be performed in multiwell plates in 100 μl reactions containing: 50 mM HEPES buffer pH 7.5, 75 mM ammonium acetate, 5.5 mM magnesium chloride, 0.5 mM ethylenediaminetetraacetic acid, 5% glycerol, 1 mM 1,4-Dithio-DL-threitol, 200 nM bovine serum albumin, 5 μg/ml sheared salmon sperm DNA, 2.5 nM E. coli GyrA, 2.5 nM E. coli GyrB, 250 μM ATP, and compound in dimethylsulfoxide. Reactions can be quenched with 150 μl of ammonium molybdate/malachite green detection reagent containing 1.2 mM malachite green hydrochloride, 8.5 mM ammonium molybdate tetrahydrate, and 1 M hydrochloric acid.
Compounds of the Examples could be expected to have IC50 values of <200 μg/ml in one or both assays described herein above. For Example the following results were obtained in a GyrB ATPase inhibition activity assay substantially similar to the above wherein the figure quoted may be an average of two or more results
Molecule `COC(=O)c1cnc(N2CC[C@H](NC(=O)c3[nH]c(C)c(Cl)c3Cl)[C@H](n3ccnc3)C2)s1` (racemic) [Example 38, cis(±)Methyl 2-[4-{[(3,4-dichloro-5-methyl-1H-pyrrol-2-yl)carbonyl]amino}-3-(1H-imidazol-1-yl)piperidin-1-yl]-1,3-thiazole-5-carboxylate] has an IC50 of 90.9 nM. In the case of `COC(=O)c1cnc(N2CC[C@H](NC(=O)c3[nH]c(C)c(Cl)c3Cl)[C@H](n3cncn3)C2)s1` (racemic) [Example 39, cis(±)Methyl 2-[4-{[(3,4-dichloro-5-methyl-1H-pyrrol-2-yl)carbonyl]amino}-3-(1H-1,2,4-triazol-1-yl)piperidin-1-yl]-1,3-thiazole-5-carboxylate], the IC50 is reported as 33.4 nM. With `COC(=O)c1cnc(N2CC[C@H](NC(=O)c3[nH]c(C)c(Cl)c3Cl)[C@H](n3cnc(Cl)n3)C2)s1` (racemic) [Example 40, cis(±)Methyl 2-(3-(3-chloro-1H-1,2,4-triazol-1-yl)-4-{[(3,4-dichloro-5-methyl-1H-pyrrol-2-yl)carbonyl]amino}piperidin-1-yl)-1,3-thiazole-5-carboxylate] the IC50 was 51.9 nM. `CCOC(=O)c1cccc2nc(N3CC[C@H](NC(=O)c4[nH]c(C)c(Cl)c4Cl)[C@H](n4ccnc4)C3)sc12` (racemic) [Example 41, cis(±)Ethyl 2-[4-{[(3,4-dichloro-5-methyl-1H-pyrrol-2-yl)carbonyl]amino}-3-(1H-imidazol-1-yl)piperidin-1-yl]-1,3-benzothiazole-7-carboxy late] was tested, and the IC50 was 53.4 nM. For `Cc1[nH]c(C(=O)N[C@H]2CCN(c3ncc(C(=O)O)s3)C[C@H]2n2ccnc2)c(Cl)c1Cl` (racemic) [Example 42, cis(±)2-[4-{[(3,4-Dichloro-5-methyl-1H-pyrrol-2-yl)carbonyl]amino}-3-(1H-imidazol-1-yl)piperidin-1-yl]-1,3-thiazole-5-carboxylic acid], the IC50 was < 75.6 nM. For `Cc1[nH]c(C(=O)N[C@H]2CCN(c3ncc(C(=O)O)s3)C[C@H]2n2cncn2)c(Cl)c1Cl` (racemic) [Example 43, cis(±)2-[4-{[(3,4-Dichloro-5-methyl-1H-pyrrol-2-yl)carbonyl]amino}-3-(1H-1,2,4-triazol-1-yl)piperidin-1-yl]-1,3-thiazole-5-carboxylic acid], the IC50 was < 9.77 nM. In the case of `Cc1[nH]c(C(=O)N[C@H]2CCN(c3nc4cccc(C(=O)O)c4s3)C[C@H]2n2ccnc2)c(Cl)c1Cl` (racemic) [Example 44, cis(±)2-[4-{[(3,4-Dichloro-5-methyl-1H-pyrrol-2-yl)carbonyl]amino}-3-(1H-imidazol-1-yl)piperidin-1-yl]-1,3-benzothiazole-7-carboxylic acid], the IC50 is reported as < 9.77 nM. With `Cc1[nH]c(C(=O)N[C@H]2CCN(c3ncc(C(=O)O)s3)C[C@H]2n2cnc(Cl)n2)c(Cl)c1Cl` (racemic) [Example 45, cis(±)2-(3-(3-Chloro-1H-1,2,4-triazol-1-yl)-4-{[(3,4-dichloro-5-methyl-1H-pyrrol-2-yl)carbonyl]amino}piperidin-1-yl)-1,3-thiazole-5-carboxylic acid] the IC50 was < 9.77 nM. With `CONC(=O)c1cccc2nc(N3CC[C@H](NC(=O)c4[nH]c(C)c(Cl)c4Cl)[C@H](n4ccnc4)C3)sc12` (racemic) [Example 46, cis(±)2-[4-{[(3,4-Dichloro-5-methyl-1H-pyrrol-2-yl)carbonyl]amino}-3-(1H-imidazol-1-yl)piperidin-1-yl]-N-methoxy-1,3-benzothiazole-7-carboxamide] the IC50 was < 9.77 nM. Molecule `Cc1[nH]c(C(=O)N[C@H]2CCN(c3ncc(C(N)=O)s3)C[C@H]2n2ccnc2)c(Cl)c1Cl` (racemic) [Example 47, cis(±)2-[4-{[(3,4-Dichloro-5-methyl-1H-pyrrol-2-yl)carbonyl]amino}-3-(1H-imidazol-1-yl)piperidin-1-yl]-1,3-thiazole-5-carboxamide] has an IC50 of 25.7 nM. Work on `CCOC(=O)c1sc(N2CC[C@H](NC(=O)c3[nH]c(C)c(Cl)c3Cl)[C@H](n3cncn3)C2)nc1C(=O)N[C@@H](C)COC` (racemic) [Example 48, cis(±)Ethyl 2-[4-{[(3,4-dichloro-5-methyl-1H-pyrrol-2-yl)carbonyl]amino}-3-(1H-1,2,4-triazol-1-yl)piperidin-1-yl]-4-({[(1S)-2-methoxy-1-methylethyl]amino}carbonyl)-1,3-thiazole-5-carboxylate] yielded an IC50 of 36.5 nM. With `CCOC(=O)c1sc(N2CC[C@H](NC(=O)c3[nH]c(C)c(Cl)c3Cl)[C@H](n3cncn3)C2)nc1C(=O)O` (racemic) [Example 49, cis(±)2-[4-{[(3,4-Dichloro-5-methyl-1H-pyrrol-2-yl)carbonyl]amino}-3-(1H-1,2,4-triazol-1-yl)piperidin-1-yl]-5-(ethoxycarbonyl)-1,3-thiazole-4-carboxylic acid] the IC50 was < 9.77 nM. With `COC[C@H](C)NC(=O)c1nc(N2CC[C@H](NC(=O)c3[nH]c(C)c(Cl)c3Cl)[C@H](n3cncn3)C2)sc1C(=O)O` (racemic) [Example 50, cis(±)2-[4-{[(3,4-Dichloro-5-methyl-1H-pyrrol-2-yl)carbonyl]amino}-3-(1H-1,2,4-triazol-1-yl)piperidin-1-yl]-4-({[(1S)-2-methoxy-1-methylethyl]amino}carbonyl)-1,3-thiazole-5-carboxylic acid] the IC50 was < 9.77 nM. With `COC(=O)c1cnc(N2CC[C@H](NC(=O)c3[nH]c(C)c(Cl)c3Cl)[C@H](N=[N+]=[N-])C2)s1` (racemic) [Example 65, cis(±)Methyl 2-(3-azido-4-{[(3,4-dichloro-5-methyl-1H-pyrrol-2-yl)carbonyl]amino}piperidin-1-yl)-1,3-thiazole-5-carboxylate] the IC50 was < 9.77 nM. With `Cc1[nH]c(C(=O)N[C@H]2CCN(c3ncc(C(=O)O)s3)C[C@H]2N=[N+]=[N-])c(Cl)c1Cl` (racemic) [Example 66, cis(±)-2-(3-Azido-4-{[(3,4-dichloro-5-methyl-1H-pyrrol-2-yl)carbonyl]amino}piperidin-1-yl)-1,3-thiazole-5-carboxylic acid] the IC50 was < 9.77 nM. Molecule `Cc1[nH]c(C(=O)N[C@H]2CCN(c3ncc(C(=O)O)s3)C[C@H]2N)c(Cl)c1Cl` (racemic) [Example 68, cis(±)2-(3-Amino-4-{[(3,4-dichloro-5-methyl-1H-pyrrol-2-yl)carbonyl]amino}piperidin-1-yl)-1,3-thiazole-5-carboxylic acid] has an IC50 of 291 nM. For `Cc1[nH]c(C(=O)N[C@H]2CCN(c3ncc(C(=O)O)s3)C[C@H]2n2ccnn2)c(Cl)c1Cl` (racemic) [Example 119, cis(±)2-[4-{[(3,4-Dichloro-5-methyl-1H-pyrrol-2-yl)carbonyl]amino}-3-(1H-1,2,3-triazol-1-yl)piperidin-1-yl]-1,3-thiazole-5-carboxylic acid], the IC50 was 12.3 nM. In the case of `COC(=O)c1cnc(N2CC[C@H](NC(=O)c3[nH]c(C)c(Cl)c3Cl)[C@H](n3cc(C)nn3)C2)s1` (racemic) [Example 121, cis(±)Methyl 2-[4-{[(3,4-dichloro-5-methyl-1H-pyrrol-2-yl)carbonyl]amino}-3-(4-methyl-1H-1,2,3-triazol-1-yl)piperidin-1-yl]-1,3-thiazole-5-carboxylate], the IC50 is reported as 36.9 nM. `Cc1cn([C@@H]2CN(c3ncc(C(=O)O)s3)CC[C@@H]2NC(=O)c2[nH]c(C)c(Cl)c2Cl)nn1` (racemic) [Example 122, cis(±)2-[4-{[(3,4-Dichloro-5-methyl-1H-pyrrol-2-yl)carbonyl]amino}-3-(4-methyl-1H-1,2,3-triazol-1-yl)piperidin-1-yl]-1,3-thiazole-5-carboxylic acid] was tested, and the IC50 was < 9.77 nM. `COC(=O)c1cnc(N2CC[C@H](NC(=O)c3[nH]c(C)c(Cl)c3Cl)[C@H](n3ccnn3)C2)s1` (racemic) [Example 126, cis(±)Methyl 2-[4-{[(3,4-dichloro-5-methyl-1H-pyrrol-2-yl)carbonyl]amino}-3-(1H-1,2,3-triazol-1-yl)piperidin-1-yl]-1,3-thiazole-5-carboxylate] gave an IC50 of 32.7 nM. `COC(=O)c1sc(N2CCC(NC(=O)c3[nH]c(C)c(Cl)c3Cl)C3(C2)OCCO3)nc1C(C)=O` (stereo not drawn) [Example 2, Methyl 4-acetyl-2-(10-{[(3,4-dichloro-5-methyl-1H-pyrrol-2-yl)carbonyl]amino}-1,4-dioxa-7-azaspiro[4.5]dec-7-yl)-1,3-thiazole-5-carboxylate] gave an IC50 of 487 nM. In the case of `CNC(=O)c1nc(N2CCC(NC(=O)c3[nH]c(C)c(Cl)c3Cl)C3(C2)OCCO3)sc1C(=O)OC(C)C` (stereo not drawn) [Example 3, Isopropyl 2-(10-{[(3,4-dichloro-5-methyl-1H-pyrrol-2-yl)carbonyl]amino}-1,4-dioxa-7-azaspiro[4.5]dec-7-yl)-4-[(methylamino)carbonyl]-1,3-thiazole-5-carboxylate], the IC50 is reported as 270 nM. Molecule `CCOC(=O)c1sc(N2CCC(NC(=O)c3[nH]c(C)c(Cl)c3Cl)C3(C2)OCCO3)nc1C(=O)NCCOC` (stereo not drawn) [Example 5, Ethyl 2-(10-{[(3,4-dichloro-5-methyl-1H-pyrrol-2-yl)carbonyl]amino}-1,4-dioxa-7-azaspiro[4.5]dec-7-yl)-4-{[(2-methoxyethyl)amino]carbonyl}-1,3-thiazole-5-carboxylate] has an IC50 of 226 nM. In the case of `COC(=O)c1cnc(N2CCC(NC(=O)c3[nH]c(C)c(Cl)c3Cl)C3(C2)OCCCO3)s1` (stereo not drawn) [Example 6, Methyl 2-(11-{[(3,4-dichloro-5-methyl-1H-pyrrol-2-yl)carbonyl]amino}-1,5-dioxa-8-azaspiro[5.5]undec-8-yl)-1,3-thiazole-5-carboxylate], the IC50 is reported as 79.1 nM.
